This note sets out measurements from patent US20070155827A1, “USE OF BENZO-FUSED HETEROCYCLE SULFAMIDE DERIVATIVES FOR THE TREATMENT OF DEPRESSION” (priority 2005, published 2007).

For experiment [1], the system named is Male Wistar rats. Kind of experiment: Chronic Mild Stress Model (Chronic), sucrose consumption. Format: in vivo. An excerpt:
In the chronic mild stress (CMS) model rats subjected to a variety of mild stressors for a prolonged period of time show, among other behavioural, biochemical and physiological impairments, a substantial decrease in their responsiveness to rewarding stimuli. This deficit is usually monitored by a decrease in the consumption of the 1% sucrose solution, but can also be seen in other tests, such as place preference conditioning or intracranial self-stimulation. Since the subsensitivity to reward appears to reflect anhedonia (inability to experience pleasure), which is a core symptom of major depressive disorders, the CMS procedure may serve as a suitable research tool in studies into the mechanisms of antidepressant action.
Male Wistar rats were brought into the laboratory two months before the start of the experiment. Except as described below, the animals were singly housed with food and water freely available, and were maintained on a 12-h light/dark and in a constant temperature (22±2° C.) and humidity (50±5%) conditions.
The animals were first trained to consume a 1% sucrose solution; training consisted of eight 1 h baseline tests in which sucrose was presented, in the home cage, following 14 h food and water deprivation; the sucrose intake was measured by weighing pre-weighed bottles containing the sucrose solution, at the end of the test. Subsequently, sucrose consumption was monitored, under similar conditions, at weekly intervals throughout the whole experiment.
On the basis of their sucrose intakes in the final baseline test, the animals were divided into two matched groups. One group of animals was subjected to the chronic mild stress procedure for a period of 7 consecutive weeks. Each week of stress regime consisted of: two periods of food or water deprivation, two periods of 45 degree cage tilt, two periods of intermittent illumination (lights on and off every 2 h), two periods of soiled cage (250 ml water in sawdust bedding), one period of paired housing, two periods of low intensity stroboscopic illumination (150 flashes/min), and three periods of no stress. All stressors were 10-14 h of duration and were applied individually and continuously, day and night. Control animals were housed in separate rooms and had no contact with the stressed animals. They were deprived of food and water for the 14 h preceding each sucrose test, but otherwise food and water were freely available in the home cage.
The drugs were administered at approx. 10.00 and the weekly sucrose tests were carried out 24 h following the last drug injections. […]
All results obtained in this study were analyzed by multiple analyses of variance with three between-subjects factors (stress/control, drug treatments and successive sucrose tests). […]

For experiment [2], the system named is Male Sprague Dawley rats. The experiment in a line: Forced Swim Test (Acute), FST. Type of experiment: in vivo. To be noted: p.o. On the procedure:
The Forced Swim test (FST) is a commonly used procedure to screen compounds for possible antidepressant properties. This test is also known as the behavioral despair test. Rodents placed in […] tanks filled with water present a wide variety of escape or immobility behaviors. Antidepressant drugs from different classes markedly increase escape behaviors and/or decrease latency or duration of immobility.
Venlafaxine and desipramine were dissolved in water. All drugs and their vehicles were administered orally (p.o.) by gavage in a volume of 5 mL/kg.
Male Sprague Dawley rats (140 to 160 g) from Charles River Laboratories Wilmington, Mass. were used. The animals went through a five-day quarantine period before being subjected to the experimental procedure.
Animals were housed in groups of four in plastic cages at an ambient temperature of 21° C. to 23° C. with an automated 12 hour light/dark cycle and access to water and commercial rodent food ad libitum. Animals were not handled more than for the routine bedding change prior to pre-test swim session.
Each experiment consisted of seven treatment groups with n=4 animals per group. A total of 28 animals per experiment were used. Two consecutive experiments (1 and 2, 3 and 4, and 5 and 6) were exact replicas of each other. […] One treatment group of n=4 animals in each experiment was a vehicle treated group. […] In experiments 5 and 6 the effects of venlafaxine and maprotyline at 12 mg/kg, 30 mg/kg, and 60 mg/kg were tested.
The basic apparatus consisted of a cylinder (46 cm tall×˜20 cm diameter) filled with water to 30 cm deep, at a temperature of 25±1° C. The automated version of the FST was used to perform the experiments. Plumbing for automatic filling and emptying water connected the four cylinders. Cylinders were placed in the dividing chambers 25 cm wide to separate animals visually. Each 5-minute experimental session was videotaped and analyzed in real time by computer software (Clever Systems, Inc.) for four animals at a time. The immobility, swimming, climbing and escape times were recorded by the software. The four activities are defined as follow. Immobility: the animal floats motionlessly or makes only those movements necessary to keep its head above water; Climb: the animal vigorously moves vertically while scratching the wall around the cylinder; Swim: the animal moves horizontally around in the cylinder more than necessary to keep its head above water; and Escape: sum of all vigorous active movements.
The ability of a test compound to decrease the duration or frequency of immobility, or changes in swimming, climbing and escape times, was measured using the FST procedure described above. […] The analysis of the results in the studies described was focused on the immobility time during 5-minute test session.
There were two swim sessions in each experiment. First, a pre-test swim session for 15 minutes was performed. Following 48 hours later was a test session of 5-minute duration. Upon completion of a swim session, each animal was placed under a heat lamp in a cage with soft bedding for approximately 15 minutes to prevent hypothermia.
Animals were pre-treated with a vehicle or test compound after completing the pre-test swim session, then 24 hours later and then shortly prior to the 5-minute test session; i.e., three injections were given to each animal between the two swim sessions that occurred on 3 consecutive days.
Data were analyzed using GraphPad Prism software (GraphPad Software, Inc. San Diego, Calif.). For the comparison of the effect of different doses for various drugs on immobility in the FST one-way ANOVA was used followed by Dunnett's multiple comparison test. […] The ED50 and Emax values were statistically compared using two-tail t-test.

The term ED50 denotes the dose at which the effect has come halfway, by size or by number of responders. With `NS(=O)(=O)NC[C@H]1COc2cc(Cl)ccc2O1` [Compound #8, (2S)-(−)-N-(6-Chloro-2,3-dihydro-benzo[1,4]dioxin-2-ylmethyl)-sulfamide], the “Treatment effect on sucrose intake vs vehicle, control animals” value in experiment [1] (controls, 12, 30 or 60 mg/kg once daily i.p. for five weeks) is on record as “did not cause significant Treatment effects”. In addition, the “Treatment effect on sucrose intake vs vehicle, stressed animals” value in experiment [1] (stressed, 12, 30 or 60 mg/kg once daily i.p. for five weeks) is recorded as “did not cause significant Treatment effects”. Further, the ED50 in experiment [2] (Rattus norvegicus, po, 5 min, three administrations, 5-minute test session, read-out: ED50 (immobility)) came out at 5.6 ± 0.6 mg/kg. Also, the “effect in the FST (immobility time)” value in experiment [2] (5-minute testing session) is recorded as “antidepressant-like activity in the FST”. The “Emax (immobility)” value in experiment [2] (immobility) is 67.0 ± 11.6 s.
